Data published in the supplement of paper PMC8920030.

How the values were obtained:
Conditions in all cases: growth mode: biofilm, 24 h; exposure time: 24 h
colistin [1] = compound: T1, CCC(C)CCCC(=O)N[C@@H](CCN)C(=O)N[C@H](C(=O)N[C@@H](CCN)C(=O)N[C@H]1CCNC(=O)[C@H]([C@@H](C)O)NC(=O)[C@H](CCN)NC(=O)[C@H](CCN)NC(=O)[C@H](CC(C)C)NC(=O)[C@@H](CC(C)C)NC(=O)[C@H](CCN)NC1=O)[C@@H](C)O [colistin]; experiment: minimum concentration of killing, 2-log CFU reduction of biofilm (MCK99); higher = more biofilm tolerance
Experimental: (§1)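 Clinical P. aeruginosa isolates were grown as static biofilms for 24 h at 37 °C in LB in half-area 96-well plates, then exposed for 24 h to colistin at 1, 4, 16, 64, 256 or […]. Surviving CFU were counted by spotting serial dilutions. MCK is the lowest tested concentration giving the stated log reduction in CFU versus an untreated control; '>1024' means the reduction was not reached at the top dose, and 1 is the lowest dose tested (≤1).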

tobramycin [2] = compound: T2, NC[C@H]1O[C@H](O[C@H]2[C@H](O)[C@@H](O[C@H]3O[C@H](CO)[C@@H](O)[C@H](N)[C@H]3O)[C@H](N)C[C@@H]2N)[C@H](N)C[C@@H]1O [tobramycin]; experiment: minimum concentration eradicating biofilm below detection limit (MCK-E); higher = more biofilm tolerance
Experimental: as §1, with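 “tobramycin” for “colistin”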

colistin [3] = compound: T1, colistin; experiment: minimum concentration of killing, 1-log CFU reduction of biofilm (MCK90); higher = more biofilm tolerance
Experimental: as §1

tobramycin [4] = compound: T2, tobramycin; experiment: minimum concentration of killing, 2-log CFU reduction of biofilm (MCK99); higher = more biofilm tolerance
Experimental: as §1, with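 “tobramycin” for “colistin”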

colistin [5] = compound: T1, colistin; experiment: minimum concentration of killing, 4-log CFU reduction of biofilm (MCK99.99); higher = more biofilm tolerance
Experimental: as §1

tobramycin [6] = compound: T2, tobramycin; experiment: minimum concentration of killing, 1-log CFU reduction of biofilm (MCK90); higher = more biofilm tolerance
Experimental: as §1, with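 “tobramycin” for “colistin”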

colistin [7] = compound: T1, colistin; experiment: minimum concentration eradicating biofilm below detection limit (MCK-E); higher = more biofilm tolerance
Experimental: as §1

tobramycin [8] = compound: T2, tobramycin; experiment: minimum concentration of killing, 4-log CFU reduction of biofilm (MCK99.99); higher = more biofilm tolerance
Experimental: as §1, with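 “tobramycin” for “colistin”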

Row | Test System | minimum concentration of killing (colistin [1]) | minimum concentration eradicating biofilm below detection limit (tobramycin [2]) | minimum concentration of killing (colistin [3]) | minimum concentration of killing (tobramycin [4]) | minimum concentration of killing (colistin [5]) | minimum concentration of killing (tobramycin [6]) | minimum concentration eradicating biofilm below detection limit (colistin [7]) | minimum concentration of killing (tobramycin [8])
1 | Pseudomonas aeruginosa clinical isolate ESP081 | 256 µg/mL | 64 µg/mL | 256 µg/mL | 16 µg/mL | 256 µg/mL | 4 µg/mL | 256 µg/mL | 64 µg/mL
2 | Pseudomonas aeruginosa clinical isolate ESP083 | 64 µg/mL | > 1020 µg/mL | 4 µg/mL | > 1020 µg/mL | 256 µg/mL | > 1020 µg/mL | 256 µg/mL | > 1020 µg/mL
3 | Pseudomonas aeruginosa clinical isolate ESP088 | 64 µg/mL | > 1020 µg/mL | 64 µg/mL | 1020 µg/mL | 256 µg/mL | 256 µg/mL | 256 µg/mL | > 1020 µg/mL
4 | Pseudomonas aeruginosa clinical isolate ESP091 | 256 µg/mL | 1020 µg/mL | 256 µg/mL | 64 µg/mL | 256 µg/mL | 64 µg/mL | 256 µg/mL | 1020 µg/mL
5 | Pseudomonas aeruginosa clinical isolate ESP093 | 64 µg/mL | > 1020 µg/mL | 16 µg/mL | 1020 µg/mL | 256 µg/mL | 4 µg/mL | 256 µg/mL | > 1020 µg/mL
6 | Pseudomonas aeruginosa clinical isolate F1688 | 256 µg/mL | 256 µg/mL | 16 µg/mL | 4 µg/mL | 256 µg/mL | 4 µg/mL | 256 µg/mL | 256 µg/mL
7 | Pseudomonas aeruginosa clinical isolate F1706 | 256 µg/mL | 256 µg/mL | 256 µg/mL | 16 µg/mL | 256 µg/mL | 4 µg/mL | 256 µg/mL | 16 µg/mL
8 | Pseudomonas aeruginosa clinical isolate F1720 | 64 µg/mL | > 1020 µg/mL | ≤ 1 µg/mL | 64 µg/mL | 256 µg/mL | 4 µg/mL | 256 µg/mL | 1020 µg/mL
9 | Pseudomonas aeruginosa clinical isolate F1727 | 256 µg/mL | 1020 µg/mL | 256 µg/mL | 4 µg/mL | 256 µg/mL | 4 µg/mL | 256 µg/mL | 1020 µg/mL
10 | Pseudomonas aeruginosa clinical isolate F1757 | 64 µg/mL | > 1020 µg/mL | 64 µg/mL | 64 µg/mL | 64 µg/mL | ≤ 1 µg/mL | 256 µg/mL | > 1020 µg/mL
11 | Pseudomonas aeruginosa clinical isolate F1758 | 256 µg/mL | 1020 µg/mL | 64 µg/mL | 256 µg/mL | 256 µg/mL | 16 µg/mL | 256 µg/mL | 1020 µg/mL
12 | Pseudomonas aeruginosa clinical isolate F1759 | 256 µg/mL | 256 µg/mL | 64 µg/mL | 4 µg/mL | 256 µg/mL | ≤ 1 µg/mL | 256 µg/mL | 64 µg/mL
13 | Pseudomonas aeruginosa clinical isolate F1764 | 64 µg/mL | > 1020 µg/mL | 16 µg/mL | 64 µg/mL | 64 µg/mL | 16 µg/mL | 64 µg/mL | 1020 µg/mL
14 | Pseudomonas aeruginosa clinical isolate F1775 | 256 µg/mL | 1020 µg/mL | 16 µg/mL | ≤ 1 µg/mL | 256 µg/mL | ≤ 1 µg/mL | 256 µg/mL | 16 µg/mL
15 | Pseudomonas aeruginosa clinical isolate F1800 | 256 µg/mL | 1020 µg/mL | 16 µg/mL | ≤ 1 µg/mL | 1020 µg/mL | ≤ 1 µg/mL | 1020 µg/mL | 256 µg/mL
16 | Pseudomonas aeruginosa clinical isolate F1823 | 256 µg/mL | > 1020 µg/mL | 64 µg/mL | 64 µg/mL | 256 µg/mL | 4 µg/mL | 1020 µg/mL | > 1020 µg/mL
17 | Pseudomonas aeruginosa clinical isolate F1856 | 16 µg/mL | 1020 µg/mL | 4 µg/mL | 1020 µg/mL | 64 µg/mL | 256 µg/mL | 64 µg/mL | 1020 µg/mL
18 | Pseudomonas aeruginosa clinical isolate F1862 | 256 µg/mL | 256 µg/mL | 256 µg/mL | 256 µg/mL | 256 µg/mL | 64 µg/mL | 256 µg/mL | 256 µg/mL
